This passage reports IC50 results from patent publication US10544143B2, “4-azaindole compounds” (BRISTOL-MYERS SQUIBB COMPANY, priority 2017, dated 2020).

In one experiment the target is human TLR7 (Homo sapiens (Human), UniProt Q9NYK1). Put plainly: TLR7 inhibition reporter assay (HEK-Blue SEAP). In kind it is cell-based. The conditions noted are these: HEK-Blue human TLR7 cells, gardiquimod 7.5 μM. On the technique in general: Reporter assays use an easily measured gene product as a stand-in for the process of interest.
human TLR7, sequence (Q9NYK1 27-1049): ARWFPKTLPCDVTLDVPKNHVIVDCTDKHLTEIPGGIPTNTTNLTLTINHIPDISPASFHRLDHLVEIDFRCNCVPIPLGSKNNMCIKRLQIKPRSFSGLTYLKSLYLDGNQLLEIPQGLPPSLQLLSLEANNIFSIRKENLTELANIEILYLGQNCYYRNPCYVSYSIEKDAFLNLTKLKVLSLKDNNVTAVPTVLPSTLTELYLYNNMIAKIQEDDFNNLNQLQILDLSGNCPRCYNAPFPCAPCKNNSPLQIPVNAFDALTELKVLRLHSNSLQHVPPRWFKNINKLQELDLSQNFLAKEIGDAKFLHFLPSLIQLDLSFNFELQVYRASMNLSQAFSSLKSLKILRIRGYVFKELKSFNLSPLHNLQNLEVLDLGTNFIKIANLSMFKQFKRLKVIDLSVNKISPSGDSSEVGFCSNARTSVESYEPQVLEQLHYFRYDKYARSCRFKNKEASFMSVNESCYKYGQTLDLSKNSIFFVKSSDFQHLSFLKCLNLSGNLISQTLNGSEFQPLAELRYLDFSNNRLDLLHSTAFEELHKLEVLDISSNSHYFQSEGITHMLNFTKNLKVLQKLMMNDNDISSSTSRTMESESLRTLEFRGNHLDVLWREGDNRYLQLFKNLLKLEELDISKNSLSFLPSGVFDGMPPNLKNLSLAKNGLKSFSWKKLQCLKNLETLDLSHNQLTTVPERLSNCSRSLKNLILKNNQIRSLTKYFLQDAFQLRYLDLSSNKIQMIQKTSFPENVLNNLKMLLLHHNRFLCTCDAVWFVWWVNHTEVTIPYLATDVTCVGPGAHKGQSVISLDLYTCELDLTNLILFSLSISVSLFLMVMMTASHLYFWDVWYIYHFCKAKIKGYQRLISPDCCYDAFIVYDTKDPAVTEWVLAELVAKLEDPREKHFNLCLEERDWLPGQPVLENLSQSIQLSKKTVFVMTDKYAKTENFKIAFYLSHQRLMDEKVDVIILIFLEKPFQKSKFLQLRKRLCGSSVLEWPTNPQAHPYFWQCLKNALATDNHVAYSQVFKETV
In another experiment the target is human TLR8 (Homo sapiens (Human), UniProt Q9NR97). Put plainly: TLR8 inhibition reporter assay (HEK-Blue SEAP).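 Also: SEAP driven by IFN-β minimal promoter carrying NF-κB and AP-1 sites, compounds dosed 0.05 nM to 50 µM for 22 h, inhibition scaled between agonist-plus-DMSO and reference-inhibitor wells.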 To be noted: read-out: TLR8 IC50; HEK-Blue human TLR8 cells, R848 15.9 μM.
human TLR8, sequence (Q9NR97 27-1041): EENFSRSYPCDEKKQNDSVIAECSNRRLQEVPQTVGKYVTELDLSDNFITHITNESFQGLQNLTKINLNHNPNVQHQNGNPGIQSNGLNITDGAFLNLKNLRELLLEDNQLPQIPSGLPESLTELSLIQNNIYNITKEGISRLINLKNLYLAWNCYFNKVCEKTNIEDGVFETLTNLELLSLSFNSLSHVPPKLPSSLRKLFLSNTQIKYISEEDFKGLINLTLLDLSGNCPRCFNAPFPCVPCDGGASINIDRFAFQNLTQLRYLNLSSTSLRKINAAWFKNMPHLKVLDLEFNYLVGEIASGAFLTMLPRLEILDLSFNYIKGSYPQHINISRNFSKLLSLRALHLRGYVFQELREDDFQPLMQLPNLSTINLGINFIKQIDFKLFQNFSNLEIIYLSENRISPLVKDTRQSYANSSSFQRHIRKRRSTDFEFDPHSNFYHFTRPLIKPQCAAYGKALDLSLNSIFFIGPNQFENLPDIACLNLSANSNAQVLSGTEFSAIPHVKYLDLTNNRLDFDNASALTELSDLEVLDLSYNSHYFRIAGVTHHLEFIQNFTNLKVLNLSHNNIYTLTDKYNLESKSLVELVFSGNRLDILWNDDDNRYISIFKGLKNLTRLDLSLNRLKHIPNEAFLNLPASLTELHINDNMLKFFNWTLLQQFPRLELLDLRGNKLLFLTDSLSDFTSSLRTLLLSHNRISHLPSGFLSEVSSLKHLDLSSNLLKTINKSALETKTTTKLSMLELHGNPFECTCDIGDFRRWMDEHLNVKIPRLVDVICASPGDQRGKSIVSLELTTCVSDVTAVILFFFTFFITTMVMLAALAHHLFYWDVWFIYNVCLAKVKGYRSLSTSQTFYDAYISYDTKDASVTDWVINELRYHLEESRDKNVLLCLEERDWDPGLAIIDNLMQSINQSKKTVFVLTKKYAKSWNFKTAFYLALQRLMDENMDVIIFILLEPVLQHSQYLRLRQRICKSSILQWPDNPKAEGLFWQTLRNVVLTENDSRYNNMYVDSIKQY
Another experiment addresses human TLR9 (Homo sapiens (Human), UniProt Q9NR96). Put plainly: TLR9 inhibition reporter assay (HEK-Blue SEAP).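 Also: SEAP driven by an IFN-β minimal promoter with NF-κB and AP-1 sites, read after 22 h, compounds dosed 0.05 nM–50 µM, inhibition scaled between agonist plus DMSO and reference-inhibitor wells.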 To be noted: read-out: TLR9 IC50; HEK-Blue human TLR9 cells, ODN2006 5 nM.

human TLR9, sequence (Q9NR96 26-1032): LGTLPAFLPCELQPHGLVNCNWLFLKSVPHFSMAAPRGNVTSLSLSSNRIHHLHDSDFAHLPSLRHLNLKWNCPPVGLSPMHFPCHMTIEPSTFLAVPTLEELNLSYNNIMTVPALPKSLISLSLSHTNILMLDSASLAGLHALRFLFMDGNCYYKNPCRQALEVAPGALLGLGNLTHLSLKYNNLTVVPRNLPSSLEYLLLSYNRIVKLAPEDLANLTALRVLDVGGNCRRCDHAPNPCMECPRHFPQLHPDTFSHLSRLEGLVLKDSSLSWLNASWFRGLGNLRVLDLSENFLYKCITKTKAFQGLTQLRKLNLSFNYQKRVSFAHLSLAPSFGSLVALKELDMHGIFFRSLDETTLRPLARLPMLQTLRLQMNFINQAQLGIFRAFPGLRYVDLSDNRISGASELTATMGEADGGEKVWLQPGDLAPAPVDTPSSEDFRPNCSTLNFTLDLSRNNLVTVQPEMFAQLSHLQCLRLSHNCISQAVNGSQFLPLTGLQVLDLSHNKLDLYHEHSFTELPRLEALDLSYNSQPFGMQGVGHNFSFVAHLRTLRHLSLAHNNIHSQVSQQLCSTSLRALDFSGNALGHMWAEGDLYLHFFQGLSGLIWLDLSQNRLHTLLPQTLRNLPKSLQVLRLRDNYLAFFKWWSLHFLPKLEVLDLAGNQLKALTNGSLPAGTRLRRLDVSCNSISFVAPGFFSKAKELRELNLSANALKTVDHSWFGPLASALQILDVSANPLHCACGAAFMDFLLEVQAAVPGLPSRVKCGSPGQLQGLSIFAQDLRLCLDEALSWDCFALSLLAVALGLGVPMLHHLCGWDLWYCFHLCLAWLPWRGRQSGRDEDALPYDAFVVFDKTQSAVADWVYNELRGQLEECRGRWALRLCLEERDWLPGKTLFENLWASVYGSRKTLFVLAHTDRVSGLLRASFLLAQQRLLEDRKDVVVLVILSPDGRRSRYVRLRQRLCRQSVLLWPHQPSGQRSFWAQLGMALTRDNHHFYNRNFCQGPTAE
Experimental for human TLR8: HEK-Blue™-cells (Invivogen) overexpressing human TLR7, TLR8 or TLR9 receptors were used for screening inhibitors of these receptors using an inducible SEAP (secreted embryonic alkaline phosphatase) reporter gene under the control of the IFN-β minimal promoter fused to five NF-κB and AP-1-binding sites. Briefly, cells are seeded into Greiner 384 well plates (15000 cells per well for TLR7, 20,000 for TLR8 and 25,000 for TLR9) and then treated with test compounds in DMSO to yield a final dose response concentration range of 0.05 nM-50 μM. After a 30 minute compound pre-treatment at room temperature, the cells are then stimulated with a TLR7 ligand (gardiquimod at a final concentration of 7.5 μM), TLR8 ligand (R848 at a final concentration of 15.9 μM) or TLR9 ligand (ODN2006 at a final concentration of 5 nM) to activate NF-κB and AP-1 which induce the production of SEAP. After a 22 hour incubation at 37° C., 5% CO2, SEAP levels are determined with the addition of HEK-Blue™ Detection reagent (Invivogen), a cell culture medium that allows for detection of SEAP, according to manufacturer's specifications.

As for `Cc1c(-c2[nH]c3ccc(N4CC5(CN(C(=O)CCN(C)C)C5)C4)nc3c2C(C)C)cn2ncnc2c1C` [Example 1006], the IC50 (usually the concentration that gives 50% inhibition) turned out to be 3.6 nM against human TLR7, 9.6 nM at human TLR8 and 339 nM on human TLR9.
Regarding `Cc1c(-c2[nH]c3ccc(N4CC5(CN(CCCS(C)(=O)=O)C5)C4)nc3c2C(C)C)cn2ncnc2c1C` [Example 1007], the figures for the IC50 on human TLR7, on human TLR8 and on human TLR9 were 3.2 nM, 4 nM and 2340 nM, respectively.
As for `Cc1c(-c2[nH]c3ccc(N4CC5(CN(CC#N)C5)C4)nc3c2C(C)C)cn2ncnc2c1C` [Example 1008], the values for the IC50 at human TLR7, on human TLR8 and on human TLR9 were 15 nM, 32 nM and 13300 nM, respectively.
For `Cc1c(-c2[nH]c3ccc(N4CC5(CN(CC(C)C)C5)C4)nc3c2C(C)C)cn2ncnc2c1C` [Example 1009], in that order: 4.5 nM, 7.7 nM and 2660 nM.
Turning to `Cc1c(-c2[nH]c3ccc(N4CC5(CN(CC(C)(C)C)C5)C4)nc3c2C(C)C)cn2ncnc2c1C` [Example 1010], the results for the IC50 at human TLR7, at human TLR8 and at human TLR9 were 3.6 nM, 4.7 nM and 2430 nM, respectively.
The matching figures for `Cc1c(-c2[nH]c3ccc(N4CC5(C4)CN(C4COC4)C5)nc3c2C(C)C)cn2ncnc2c1C` [Example 1011]: 11 nM, 22 nM and 23700 nM.
The matching figures for `Cc1c(-c2[nH]c3ccc(N4CC5(C4)CN(C4CCOCC4)C5)nc3c2C(C)C)cn2ncnc2c1C` [Example 1012]: 0.59 nM, 1.4 nM and 1690 nM.
The matching figures for `COCCN1CC2(C1)CN(c1ccc3[nH]c(-c4cn5ncnc5c(C)c4C)c(C(C)C)c3n1)C2` [Example 1013]: 11 nM, 9.2 nM and 7680 nM.
For the molecule `Cc1c(-c2[nH]c3ccc(N4CC5(CN(CCC#N)C5)C4)nc3c2C(C)C)cn2ncnc2c1C` [Example 1014], the IC50 against human TLR7 was 21 nM; on human TLR8, 26 nM; on human TLR9, 21900 nM.
`CCCN1CC2(C1)CN(c1ccc3[nH]c(-c4cn5ncnc5c(C)c4C)c(C(C)C)c3n1)C2` [Example 1015]: the results for the IC50 on human TLR7, on human TLR8 and at human TLR9 were 1.3 nM, 7.8 nM and 2380 nM, respectively.
For `COc1cc(-c2[nH]c3ccc(N4CC5(CNC5)C4)nc3c2C(C)C)cn2ncnc12` [Example 1016], in that order: 2.9 nM, 38 nM and 641 nM.
For `COc1cc(-c2[nH]c3ccc(N4CC5(CN(C)C5)C4)nc3c2C(C)C)cn2ncnc12` [Example 1017], in that order: 1.3 nM, 16 nM and 3300 nM.
Regarding `CCN1CC2(C1)CN(c1ccc3[nH]c(-c4cc(OC)c5ncnn5c4)c(C(C)C)c3n1)C2` [Example 1018], the results for the IC50 on human TLR7, on human TLR8 and on human TLR9 were 1.7 nM, 8.9 nM and 2780 nM, respectively.
Regarding `CCCN1CC2(C1)CN(c1ccc3[nH]c(-c4cc(OC)c5ncnn5c4)c(C(C)C)c3n1)C2` [Example 1019], the IC50 at human TLR7 turned out to be 1.7 nM; on human TLR8, 16 nM; at human TLR9, 3280 nM.
For `COc1cc(-c2[nH]c3ccc(N4CC5(C4)CN(C(C)C)C5)nc3c2C(C)C)cn2ncnc12` [Example 1020], in that order: 1.8 nM, 17 nM and 3860 nM.
The matching figures for `COc1cc(-c2[nH]c3ccc(N4CC5(CN(CC(C)(C)O)C5)C4)nc3c2C(C)C)cn2ncnc12` [Example 1021]: 4.3 nM, 11 nM and 5330 nM.
As for `Cc1c(-c2[nH]c3ccc(C4CC5(C4)CN(C4CCOCC4)C5)nc3c2C(C)C)cn2ncnc2c1C` [Example 1024], the IC50 against human TLR7 was found to be 1.8 nM; at human TLR8 it was 1.2 nM; on human TLR9, 4540 nM.
The matching figures for `Cc1c(-c2[nH]c3ccc(C4CC5(C4)CN(CC4(C)COC4)C5)nc3c2C(C)C)cn2ncnc2c1C` [Example 1025]: 3 nM, 0.86 nM and 5860 nM.
For `Cc1c(-c2[nH]c3ccc(C4CC5(C4)CN(CCS(C)(=O)=O)C5)nc3c2C(C)C)cn2ncnc2c1C` [Example 1026], in that order: 4.5 nM, 6.3 nM and 14500 nM.
For `Cc1c(-c2[nH]c3ccc(C4CC5(C4)CN(CC(C)(C)O)C5)nc3c2C(C)C)cn2ncnc2c1C` [Example 1028], the IC50 at human TLR7 worked out at 7.6 nM; on human TLR8, 2.1 nM; at human TLR9, 17000 nM.
For `Cc1c(-c2[nH]c3ccc(C4CC5(C4)CN(CCC(N)=O)C5)nc3c2C(C)C)cn2ncnc2c1C` [Example 1029], in that order: 1.4 nM, 5 nM and 8380 nM.
The matching figures for `Cc1c(-c2[nH]c3ccc(C4CC5(C4)CN(CCCS(C)(=O)=O)C5)nc3c2C(C)C)cn2ncnc2c1C` [Example 1030]: 3.1 nM, 1.9 nM and 6280 nM.
For `COCCN1CC2(CC(c3ccc4[nH]c(-c5cn6ncnc6c(C)c5C)c(C(C)C)c4n3)C2)C1` [Example 1031], in that order: 18 nM, 2 nM and 12700 nM.
For `Cc1c(-c2[nH]c3ccc(N4CCN(CCN(C)C)C(=O)C4)nc3c2C(C)C)cn2ncnc2c1C` [Example 1032], the results for the IC50 on human TLR7, on human TLR8 and on human TLR9 were 1210 nM, 196 nM and 25400 nM, respectively.
On to `Cc1c(-c2[nH]c3ccc(N4CCN(C(=O)CN5CC6(COC6)C5)CC4)nc3c2C(C)C)cn2ncnc2c1C` [Example 1033], for which the half-maximal inhibitory concentration (IC50) against human TLR7 turned out to be 1090 nM; at human TLR8, 974 nM; on human TLR9, 22400 nM.
For the molecule `CNCCC(=O)N1C[C@H](C)N(c2ccc3[nH]c(-c4cn5ncnc5c(C)c4C)c(C(C)C)c3n2)C[C@H]1C` [Example 1034], the results for the IC50 on human TLR7, at human TLR8 and at human TLR9 were 1400 nM, greater than 3120 nM and 26600 nM, respectively.
As for `Cc1c(-c2[nH]c3ccc(C4CCC(O)(CN)CC4)nc3c2C(C)C)cn2ncnc2c1C` (stereo not drawn) [Example 1035, 1-(aminomethyl)-4-(2-(7,8-dimethyl-[1,2,4]triazolo[1,5-a]pyridin-6-yl)-3-isopropyl-1H-pyrrolo[3,2-b]pyridin-5-yl)cyclohexan-1-ol], the IC50 at human TLR7 was determined as 1.7 nM; at human TLR8, 21 nM; on human TLR9, 3670 nM.
For `CC(C)c1c(-c2cn(C)c3ncccc23)[nH]c2ccc(C3CCC(N4CC5(COC5)C4)CC3)nc12` (stereo not drawn) [Example 1036], in that order: 1.3 nM, 2.7 nM and 1930 nM.
For `COc1cc(-c2[nH]c3ccc(C4CCC(N5CC6(COC6)C5)CC4)nc3c2C(C)C)cn2ncnc12` (stereo not drawn) [Example 1037], in that order: 3.1 nM, 6.2 nM and 1610 nM.
For `CCN(C1CCC(c2ccc3[nH]c(-c4cn5ncnc5c(C)c4C)c(C(C)C)c3n2)CC1)C1COC1` (stereo not drawn) [Example 1038], in that order: 0.98 nM, 1.3 nM and 1910 nM.
In the case of `CCN(C1CCC(c2ccc3[nH]c(-c4cn5ncnc5c(C)c4C)c(C(C)C)c3n2)CC1)C1COC1` (stereo not drawn) [Example 1039], the IC50 turned out to be 7.2 nM at human TLR7, 6.4 nM on human TLR8 and 3070 nM on human TLR9.
The matching figures for `Cc1c(-c2[nH]c3ccc(C4CCC(N5CC(C)(C)C5)CC4)nc3c2C(C)C)cn2ncnc2c1C` (stereo not drawn) [Example 1040]: 0.17 nM, 0.66 nM and 1110 nM.
The matching figures for `Cc1c(-c2[nH]c3ccc(C4CCC(N5CC(C)(O)C5)CC4)nc3c2C(C)C)cn2ncnc2c1C` (stereo not drawn) [Example 1041]: 0.49 nM, 0.85 nM and 2420 nM.
The matching figures for `COC1CN(C2CCC(c3ccc4[nH]c(-c5cn6ncnc6c(C)c5C)c(C(C)C)c4n3)CC2)C1` (stereo not drawn) [Example 1042]: 2.2 nM, 3.3 nM and 3320 nM.
As for `Cc1c(-c2[nH]c3ccc(C4CCC(NC5CCS(=O)(=O)CC5)CC4)nc3c2C(C)C)cn2ncnc2c1C` (stereo not drawn) [Example 1043], the results for the IC50 against human TLR7, on human TLR8 and at human TLR9 were 2.1 nM, 1.6 nM and 1750 nM, respectively.
For `Cc1c(-c2[nH]c3ccc(C4CCC(N5CC(C)(O)C5)CC4)nc3c2C(C)C)cn2ncnc2c1C` (stereo not drawn) [Example 1044], in that order: 4.1 nM, 9.2 nM and 3600 nM.
The matching figures for `COC1CN(C2CCC(c3ccc4[nH]c(-c5cn6ncnc6c(C)c5C)c(C(C)C)c4n3)CC2)C1` (stereo not drawn) [Example 1045]: 4.8 nM, 3.6 nM and 3240 nM.
For `Cc1c(-c2[nH]c3ccc(C4CCC(N5CC(O)C5)CC4)nc3c2C(C)C)cn2ncnc2c1C` (stereo not drawn) [Example 1046], in that order: 0.64 nM, 2.4 nM and 2500 nM.
Turning to `Cc1c(-c2[nH]c3ccc(C4CCC(N5CC(C(=O)N(C)C)C5)CC4)nc3c2C(C)C)cn2ncnc2c1C` (stereo not drawn) [Example 1047], the values for the IC50 against human TLR7, on human TLR8 and at human TLR9 were 1.3 nM, 3.5 nM and 4490 nM, respectively.
Take `Cc1c(-c2[nH]c3ccc(C4CCC(N(C)C(C)C)CC4)nc3c2C(C)C)cn2ncnc2c1C` (stereo not drawn) [Example 1048]: the IC50 on human TLR7 was 4.4 nM; at human TLR8 it was 13 nM; at human TLR9, 9830 nM.
For `Cc1c(-c2[nH]c3ccc(C4CCC(N5CC(O)C5)CC4)nc3c2C(C)C)cn2ncnc2c1C` (stereo not drawn) [Example 1049], the IC50 against human TLR7 was 1.6 nM; at human TLR8, 5.4 nM; at human TLR9 it was 2600 nM.
